Literature values, collected in patent publication US20200253884A1, “NANOBIOLOGIC COMPOSITIONS FOR PROMOTING TRAINED IMMUNITY” (ICAHN SCHOOL OF MEDICINE AT MOUNT SINAI, priority 2017, published 2020).

What was measured:
[1] = test system: diffuse large B-cell lymphoma (DLBCL); conditions: preliminary results
multiple cancers = conditions: in vivo

Substance | subjects progression-free at the end of the follow-up period ([1]; control group 47%) [%] | subjects alive ([1]; control group 62%) [%] | clinical activity (multiple cancers) | safety profile (multiple cancers)
CT-011: humanized IgG1 monoclonal antibody against PD-1 | 70 | 82 |  | 
Medi 4736: anti-PD-L1 antibody |  |  | durable clinical activity | acceptable safety profile
